In US10835533B2, “1 -((3S,4R)-4-(3-fluorophenyl)-1-(2-methoxyethyl)pyrrolidin-3-yl)-3-(4-methyl-3-(2-methylpyrimidin-5-yl)-1-phenyl-1H-pyrazol-5-yl)urea as a TrkA kinase inhibitor” (Array BioPharma Inc., priority 2014, dated 2020):

Test: Male Sprague Dawley rat pharmacokinetics, oral 10 mg/kg (Example D)
Assay type: in vivo
Conditions: for Trough concentration / AUC / Cmax: Rat, oral dose 10 mg/kg, plasma; for AUC / Cmax: male, Sprague Dawley; for Plasma:Brain ratio: Rat PO 10 mg/kg, plasma and brain collected 2 hours post dose
Experimental: Each of Compound 1, Compound 2, and Compound 3 was formulated by adding the compound (dry) to 20% Trappsol® (hydroxypropyl Beta cyclodextrin; CDT, Inc.) (aq) pH 5.0 and vortexing until a homogeneous suspension (PO) or solution (IV) was achieved.
For oral dosing, rats received a single oral dose following an overnight fast. Blood was drawn from the lateral tail vein while the animal was anesthetized with 3% isoflurane balanced with O2 (0.2 mL/timepoint) into NaEDTA tubes (1.5% v/v) at the following time points: 5, 15, and 30 minutes, and 1, 2, 4, 8, 24 and 26 hours, and mixed thoroughly. Following the 24 hour blood collection, animals were redosed orally, and plasma and brain were collected 2 hours post dose for compound analysis. Brains were perefused with saline before removal, weighed and flash frozen in liquid nitrogen until analysis by LCMS/MS. Plasma was separated by centrifugation at 14,000 rpm for 10 minutes and the plasma samples were transferred to 96 well plate tubes with rubber caps and stored at −20±5° C. until analyzed.
A single 12-point calibration curve was prepared by first serially diluting (3-fold) a 40-μg/mL stock solution of Compound 1, Compound 2, and Compound 3 in DMSO to provide standard solutions. Plasma (20 μL) was then added to the extraction plate, and 2.5 μL of each standard solution was added to the naïve plasma. A stock solution of an internal standard (10.0 μL of 2.5 μg/mL in acetonitrile) subsequently was added to each standard and sample solution. Proteinaceous material was precipitated from 20 μL of plasma with the addition of 317.5 μL of acetonitrile for a total volume of 350 μL. Samples were vortex-mixed for 5 minutes and spun in an Allegra X-12R centrifuge (Beckman Coulter, Fullerton, Calif.) for 15 minutes at approximately 1,500×g at 4° C. A 100-μL aliquot of each supernatant was transferred via a 550 μL Personal Pipettor (Apricot Designs, Monrovia, Calif.) to 96-well plates and diluted 1:1 with HPLC grade water. The resulting plates were sealed with plate mats and the amount of Compound 1n the plasma was analyzed by LC-MS/MS.
The LC-MS/MS system was comprised of an HTC-PAL autosampler (Leap Technologies, Inc., Carrboro, N.C.), an HP1100 HPLC (Agilent Technologies Inc., Santa Clara, Calif.), and an API4000 triple quadrupole mass spectrometer (Applied Biosystems, Foster City, Calif.). Chromatographic retention of the analyte and internal standard was achieved using a Phenomenex® Synergi 4μ Hydro-RP 80A column (2.1×30 mm, 4 μm particle size; Phenomenex, Torrance, Calif.) in conjunction with gradient conditions using mobile phases A (10 mM ammonium acetate in aqueous 0.1% formic acid and 1% isopropyl alcohol) and B (10 mM ammonium acetate in 89.9% acetonitrile, 10% methanol, 0.1% formic acid). The total run time, including re-equilibration time, for a single injection was 3.5 minutes and the flow rate was 0.8 mL/minute. Solvent B was increased from 5 to 95% in 1.0 minute, held at 95% for 1.0 minute, and then decreased to 5% in 0.1 minute.
A single 12-point calibration curve was prepared by first serially diluting (3-fold) a 40-μg/mL stock solution of each of Compound 1, Compound 2, and Compound 3 in DMSO. Brain homogenate was prepared by adding 5.0 mL of water to conical 50 mL tubes containing brains. The contents of the tubes were homogenized using an Omni-Prep Multi Sample Homogenizer (Kennesaw, Ga.) at 22,000 RPM for 180 seconds. The homogenate (100 μL) was added to the extraction plate, and 2.5 μL each standard solution was added to the naïve brain homogenate. A stock solution of an internal standard (10.0 μL of 2.5 μg/mL in acetonitrile) subsequently was added to each standard and sample solution. Proteinaceous material was precipitated from 100 μL of […] with the addition of 237.5 μL of acetonitrile for a total volume of 350 μL. […]

Compound: COCCN1C[C@@H](NC(=O)Nc2c(C)c(-c3cnn(C)c3)nn2-c2ccccc2)[C@H](c2ccc(F)cc2)C1 [Compound 3, 1-(1′,4-dimethyl-1-phenyl-1H,1′H-[3,4′-bipyrazol]-5-yl)-3-((3S,4R)-4-(4-fluorophenyl)-1-(2-methoxyethyl)pyrrolidin-3-yl)urea]
- Trough concentration: 0.00044 µg/mL
- AUC: 1.06 µg·h/mL
- Cmax: 0.498 µg/mL

Compound: COCCN1C[C@@H](NC(=O)Nc2c(C)c(-c3cnc(C)nc3)nn2-c2ccccc2)[C@H](c2cccc(F)c2)C1 [Compound 1, 1-((3S,4R)-4-(3-fluorophenyl)-1-(2-methoxyethyl)pyrrolidin-3-yl)-3-(4-methyl-3-(2-methylpyrimidin-5-yl)-1-phenyl-1H-pyrazol-5-yl)urea]
- Plasma:Brain ratio: 21
- Trough concentration: 0.00134 µg/mL
- AUC: 2.57 µg·h/mL
- Cmax: 1.06 µg/mL

Compound: COCCN1C[C@@H](NC(=O)Nc2c(C)c(-c3cnc(C)nc3)nn2-c2ccccc2)[C@H](c2ccc(F)c(F)c2)C1 [Compound 2, 1-((3S,4R)-4-(3,4-difluorophenyl)-1-(2-methoxyethyl)pyrrolidin-3-yl)-3-(4-methyl-3-(2-methylpyrimidin-5-yl)-1-phenyl-1H-pyrazol-5-yl)urea]
- Plasma:Brain ratio: 11
- Trough concentration: 0.000446 µg/mL
- AUC: 0.925 µg·h/mL
- Cmax: 0.42 µg/mL
